According to US20200121665A1, “PPAR GAMMA MODULATORS FOR TREATING CYSTIC DISEASES” (Indiana University Research and Technology Corporation, priority 2013, published 2020):
Like-named read-outs stand apart in the source and are kept apart here.

Tests used:
PCK rat [1] = conditions: 14 week study, 20 mg/kg BW; cited from earlier work
PCK rat [2] = conditions: for Statistics (a): KW % BW, significance compared to control / Statistics (a): Kidney Weight (KW), significance compared to control / KW % BW / Kidney Weight (KW) / LW % BW / Liver % Fibrocystic / Liver Weight (LW): 24 weeks
Source text: PCK rat animal model of slowly-progressing PKD. The PCK rat is an animal model that has a orthologous genetic mutation to the human autosomal recessive polycystic kidney disease (ARPKD), but has the phenotypic characteristics of human ADPKD, including renal and liver fibrocystic disease. The Pck gene of the rat is an orthologue to the PKHD-1 gene responsible for ARPKD. The animal model develops both kidney and liver fibrocystic diseases, and is slow progressing. […] Only females are used in the study.
Briefly, after weaning, test animals are fed a diet containing increasing doses of a PPARγ modulator, normalized to body weight, and compared to untreated control fed normal diet. A hematocrit is measured to assess the presence or absence of fluid retention. […] The untreated control group fed the same diet without any PPARγ modulators.
Animals are sacrificed and total body weight is recorded. Total kidney weight is recorded, total liver weight is recorded, and heart weight is recorded. Blood is collected via cardiac puncture, and serum and plasma samples are collected. The liver and kidney were embedded in paraffin and transversely sectioned and stained with hematoxylin, and eosin. The percent kidney weight to body weight was calculated. After histology on the kidney, renal cyst volume was determined through point count stereology methods. From the total liver weight, the percent liver to body weight was calculated. Following histology and picrosiruis red staining, the percent fibrosis can be determined through point count stereology methods. Heart weight is determined and the percent heart weight to body weight is calculated to assess heart disease, such as due to fluid retention, a reported side effect associated with PPARγ agonist treatment. Hearts are preserved in 4% paraformaldehyde. Liver enzymes, glucose levels, and ion levels are evaluated using the blood and urine samples.

In the case of `CCc1ccc(CCOc2ccc(CC3SC(=O)NC3=O)cc2)nc1` (centres unmarked) [pioglitazone], the “kidney function by serum analysis” value (PCK rat [1]) is given as “well-preserved kidney function” and the “liver enzymes by serum analysis” value (PCK rat [1]) is given as “increased”.

With `CN(CCOc1ccc(CC2SC(=O)NC2=O)cc1)c1ccccn1` (centres unmarked) [Rosiglitazone, rosiglitazone] the “Statistics (a): KW % BW, significance compared to control” value (PCK rat [2]; 0.04 mg/kg BW diet) was “S”, the “Statistics (a): Kidney Weight (KW), significance compared to control” value (PCK rat [2]; 0.04 mg/kg BW diet) was “S” and the “KW % BW” value (PCK rat [2]; 0.04 mg/kg BW diet, n = 8) was 0.95 ± 0.15%. For the same compound, the “Kidney Weight (KW)” value (PCK rat [2]; 0.04 mg/kg BW diet, n = 8) was 3.68 ± 0.14 g, the “LW % BW” value (PCK rat [2]; 0.04 mg/kg BW diet, n = 8) was 7.11 ± 0.27% and the “Liver % Fibrocystic” value (PCK rat [2]; 0.04 mg/kg BW diet, n = 8) was 35.36 ± 3.74%. For the same compound, the “Liver Weight (LW)” value (PCK rat [2]; 0.04 mg/kg BW diet, n = 8) was 24.23 ± 0.10 g, the “KW % BW” value (PCK rat [2]; 0.4 mg/kg BW diet, n = 8) was 1.27 ± 0.08% and the “Kidney Weight (KW)” value (PCK rat [2]; 0.4 mg/kg BW diet, n = 8) was 4.27 ± 0.22 g. The “LW % BW” value (PCK rat [2]; 0.4 mg/kg BW diet, n = 8) was 6.50 ± 0.57%, the “Liver % Fibrocystic” value (PCK rat [2]; 0.4 mg/kg BW diet, n = 8) was 36.81 ± 3.61% and the “Liver Weight (LW)” value (PCK rat [2]; 0.4 mg/kg BW diet, n = 8) was 22.05 ± 2.07 g. The “Statistics (a): KW % BW, significance compared to control” value (PCK rat [2]; 4.0 mg/kg BW diet) was “S”, the “Statistics (a): Kidney Weight (KW), significance compared to control” value (PCK rat [2]; 4.0 mg/kg BW diet) was “S” and the “KW % BW” value (PCK rat [2]; 4.0 mg/kg BW diet, n = 3) was 0.94 ± 0.06%. For the same compound, the “Kidney Weight (KW)” value (PCK rat [2]; 4.0 mg/kg BW diet, n = 3) was 3.56 ± 0.26 g, the “LW % BW” value (PCK rat [2]; 4.0 mg/kg BW diet, n = 3) was 5.97 ± 1.38% and the “Liver % Fibrocystic” value (PCK rat [2]; 4.0 mg/kg BW diet, n = 3) was 36.17 ± 0.38%. For the same compound, the “Liver Weight (LW)” value (PCK rat [2]; 4.0 mg/kg BW diet, n = 3) was 22.66 ± 5.39 g, the serum electrolytes (PCK rat [2]; at any concentration) was “not altered” and the “test animals died or had to be sacrificed during treatment due to cholangitis” value (PCK rat [2]; high dose group) was 9/12. For the same compound, the glucose (PCK rat [2]; rat, in vivo) was “not observed”, the “hematocrits vs control animals” value (PCK rat [2]; rat, in vivo) was “not different from the control animals” and the “side effects (increased body weight or cholangitis)” value (PCK rat [2]; rat, in vivo) was “no detected side effects”.
